From EP4663640A1 (Shanghai Institute of Materia Medica, Chinese Academy of …, priority 2023, dated 2024) come the findings set out here.

One experiment addresses T1, hTRPC3 (Homo sapiens, UniProt Q13507).
T1 construct: expressed in transfected cells; host or cells: HEK-293
T1 sequence (Q13507 1-921): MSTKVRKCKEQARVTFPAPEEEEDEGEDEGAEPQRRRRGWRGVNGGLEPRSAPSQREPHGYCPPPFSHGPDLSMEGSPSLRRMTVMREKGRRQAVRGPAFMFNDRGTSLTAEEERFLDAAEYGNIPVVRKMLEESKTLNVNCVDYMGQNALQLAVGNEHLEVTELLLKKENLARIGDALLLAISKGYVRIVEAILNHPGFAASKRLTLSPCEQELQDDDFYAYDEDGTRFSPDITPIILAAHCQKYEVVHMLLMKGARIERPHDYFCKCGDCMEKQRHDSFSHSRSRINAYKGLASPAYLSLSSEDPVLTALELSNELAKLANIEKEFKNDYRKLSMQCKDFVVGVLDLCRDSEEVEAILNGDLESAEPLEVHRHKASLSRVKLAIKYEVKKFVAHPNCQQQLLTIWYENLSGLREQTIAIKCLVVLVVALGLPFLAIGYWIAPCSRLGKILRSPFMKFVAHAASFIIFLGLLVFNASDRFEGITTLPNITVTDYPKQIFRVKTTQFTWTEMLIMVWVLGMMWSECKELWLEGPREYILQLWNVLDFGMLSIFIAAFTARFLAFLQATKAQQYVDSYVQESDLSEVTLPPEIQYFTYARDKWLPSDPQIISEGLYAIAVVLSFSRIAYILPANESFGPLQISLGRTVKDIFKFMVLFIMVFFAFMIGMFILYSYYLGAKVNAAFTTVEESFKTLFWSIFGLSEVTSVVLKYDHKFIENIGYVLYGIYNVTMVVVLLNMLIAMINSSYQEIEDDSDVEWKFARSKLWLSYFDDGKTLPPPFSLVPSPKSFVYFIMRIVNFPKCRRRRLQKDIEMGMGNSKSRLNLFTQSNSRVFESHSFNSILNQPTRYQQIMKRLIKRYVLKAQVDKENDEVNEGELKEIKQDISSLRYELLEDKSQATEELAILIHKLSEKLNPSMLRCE
The experiment in a line: TRPC3 inhibitory activity assay (FLIPR calcium fluorescence). The note with it: for relative selectivity TRPC3/ TRPC5: ratio of IC50 values. The experiment is classed as cell-based. The protocol:
(§1) HEK-293 cells expressing hTRPC3, hTRPC4 or hTRPC5 were seeded into black-bottomed 96-well plates coated with poly-lysine (PDL), with 2×10^4 cells per well. After 8 h of culture, the original culture medium was discarded, and 60 µL of Fluo-4/AM dye with a final concentration of 4 µM was added. The plates were incubated at 37 °C for 60 min, and then rinsed five times with calcium flow detection buffer. […] Then, the agonist Englerin A (EA) (MedChemExpress, Shanghai, China, final concentration of 0.3nM) was added, and the fluorescence signal was collected for 600 seconds. The fluorescence signal of the trajectory diagram is represented by F/F0, wherein F is the fluorescence signal at different time points, and F0 is the basic fluorescence signal, that is, the average value of the fluorescence signal at the first 10 time points. […] The area under the curve of the change in fluorescence intensity after adding EA was calculated. IC50 value was calculated using log[Inhibitor] vs. response - Variable slope, taking into account the area under the curve and the log value of the concentration of the compound.

The next experiment has as its target T2, hTRPC4 (Homo sapiens, UniProt Q9UBN4).
T2 construct: expressed in transfected cells; host or cells: HEK-293
T2 sequence (Q9UBN4 1-977): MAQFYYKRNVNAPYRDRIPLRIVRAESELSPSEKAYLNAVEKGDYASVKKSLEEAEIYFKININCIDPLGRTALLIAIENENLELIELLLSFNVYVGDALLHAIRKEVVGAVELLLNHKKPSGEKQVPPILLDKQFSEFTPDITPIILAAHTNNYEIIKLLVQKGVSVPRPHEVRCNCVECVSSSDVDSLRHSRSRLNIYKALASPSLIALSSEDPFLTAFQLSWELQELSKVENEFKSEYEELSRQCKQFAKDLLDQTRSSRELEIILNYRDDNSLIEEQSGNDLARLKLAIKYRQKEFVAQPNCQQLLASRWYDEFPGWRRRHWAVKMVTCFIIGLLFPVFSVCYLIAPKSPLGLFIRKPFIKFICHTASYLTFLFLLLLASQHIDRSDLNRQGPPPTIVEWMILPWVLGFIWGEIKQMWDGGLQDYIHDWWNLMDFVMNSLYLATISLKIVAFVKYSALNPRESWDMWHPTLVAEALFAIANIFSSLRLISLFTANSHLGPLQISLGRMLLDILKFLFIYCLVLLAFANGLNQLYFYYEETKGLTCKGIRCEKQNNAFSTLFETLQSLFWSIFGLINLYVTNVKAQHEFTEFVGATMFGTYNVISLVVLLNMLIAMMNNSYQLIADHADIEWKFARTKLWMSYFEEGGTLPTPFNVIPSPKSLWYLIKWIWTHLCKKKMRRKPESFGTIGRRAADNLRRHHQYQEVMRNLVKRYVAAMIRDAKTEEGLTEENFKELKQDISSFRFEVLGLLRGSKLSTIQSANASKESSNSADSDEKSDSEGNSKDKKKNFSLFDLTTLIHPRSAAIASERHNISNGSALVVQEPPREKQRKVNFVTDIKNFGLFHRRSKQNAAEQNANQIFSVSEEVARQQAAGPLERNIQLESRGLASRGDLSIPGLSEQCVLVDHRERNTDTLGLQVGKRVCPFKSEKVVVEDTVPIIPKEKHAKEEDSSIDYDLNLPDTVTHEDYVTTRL
The experiment in a line: TRPC4 inhibitory activity assay (FLIPR calcium fluorescence). In kind it is cell-based. The protocol:
as §1

Setting [1] is: Table 3, read-out: inhibitory activity IC50 TRPC3.
Where [2] appears, read: Table 3, read-out: inhibitory activity IC50 TRPC4.

SMILES strings stand for the structures. Where two headings read alike, the source gives them in different places.

A word on the IC50: it is the midpoint of a concentration-inhibition curve. Turning to `Cn1c(=O)n(CCCO)c(=O)c2c1nc(C1(F)CCC(C(F)(F)F)CC1)n2Cc1ccc(Cl)cc1` (stereo not drawn) [Example E21, 7-(4-chlorobenzyl)-8-(1-fluoro-4-(trifluoromethyl)cyclohexyl)-1-(3-hydroxypropyl)-3-methyl-3,7-dihydro-1H-purine-2,6-dione], the figures for the IC50 on hTRPC3 (setting [1]) and on hTRPC4 (setting [2]) were 2830 nM and 8.3 nM, respectively. Also, the “relative selectivity TRPC3/ TRPC5” value on hTRPC3 was determined as 555.

Consider `COC1CCC(F)(c2nc3c(c(=O)n(CCCO)c(=O)n3C)n2Cc2ccc(Cl)cc2)CC1` (stereo not drawn) [Example E32, 7-(4-chlorobenzyl)-8-(1-fluoro-4-methoxycyclohexyl)-1-(3-hydroxypropyl)-3-methyl-3,7-dihydro-1H-purine-2,6-dione], for which the IC50 at hTRPC3 (setting [1]) is > 10000 nM; on hTRPC4 (setting [2]), 18.4 nM. At hTRPC3, the “relative selectivity TRPC3/ TRPC5” value was > 980.

On to `Cn1c(=O)n(CCCO)c(=O)c2c1nc(C1(F)CCC(C(F)(F)F)CC1)n2Cc1ccc(F)c(F)c1` (stereo not drawn) [Example E52], for which the IC50 is 2530 nM on hTRPC3 and 5.7 nM at hTRPC4. Also, the “relative selectivity TRPC3/ TRPC5” value at hTRPC3 is 1946.
